Assay results taken from US9067871B2, “Aminotetraline derivatives, pharmaceutical compositions containing them, and their use in therapy” (ABBVIE DEUTSCHLAND GMBH & CO KG, priority 2009, dated 2015).
Counter-ions that a name gives are not always drawn. Like-named read-outs stand apart in the source and are kept apart here.

Experiments:
human GlyT1c = human GlyT1c (Homo sapiens (Human), UniProt P48067); assay: [3H]-Glycine uptake into recombinant CHO cells expressing human GlyT1; assay type: cell-based
Chain of human GlyT1c (P48067 whole entry): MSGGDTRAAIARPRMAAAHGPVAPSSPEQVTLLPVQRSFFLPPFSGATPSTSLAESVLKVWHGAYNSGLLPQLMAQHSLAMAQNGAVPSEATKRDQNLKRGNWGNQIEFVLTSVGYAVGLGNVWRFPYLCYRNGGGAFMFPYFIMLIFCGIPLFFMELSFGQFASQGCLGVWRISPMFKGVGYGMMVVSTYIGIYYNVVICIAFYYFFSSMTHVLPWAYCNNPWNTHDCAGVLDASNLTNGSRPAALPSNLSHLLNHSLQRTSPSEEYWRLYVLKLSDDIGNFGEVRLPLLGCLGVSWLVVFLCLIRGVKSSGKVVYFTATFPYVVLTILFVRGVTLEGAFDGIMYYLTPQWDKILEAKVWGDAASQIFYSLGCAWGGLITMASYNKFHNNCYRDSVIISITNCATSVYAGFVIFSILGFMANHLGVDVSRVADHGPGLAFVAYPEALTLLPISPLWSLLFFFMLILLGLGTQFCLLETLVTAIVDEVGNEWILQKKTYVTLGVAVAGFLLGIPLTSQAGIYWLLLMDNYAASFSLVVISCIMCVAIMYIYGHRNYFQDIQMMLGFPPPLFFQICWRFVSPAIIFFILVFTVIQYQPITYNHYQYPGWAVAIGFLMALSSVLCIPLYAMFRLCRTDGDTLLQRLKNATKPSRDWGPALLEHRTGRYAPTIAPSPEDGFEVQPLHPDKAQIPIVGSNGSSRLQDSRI
Summary of the method: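 Recombinant CHO cells stably expressing hGlyT1c, grown 24 h to sub-confluency on scintillating plates, given inhibitor or vehicle plus 200 nM (final) [3H]-glycine in HBSS. Uptake counted continuously by solid-phase scintillation for up to 3 h; nonspecific uptake defined with 10 μM Org24598.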

human GlyT1c transporter = human GlyT1c transporter (Homo sapiens (Human), UniProt P48067); assay: Radioligand binding assay using recombinant CHO cell membranes expressing human GlyT1; settings: read-out: radioligand binding Kiapp
Chain of human GlyT1c transporter (P48067 whole entry): as above
Source text: 2. Radioligand binding assays using recombinant CHO cell membranes expressing human GlyT1: […]

[1] = hGlyT1c_5_CHO cells, 200 nM [3H]-glycine
[2] = human GlyT1c-expressing CHO cell membranes

| Structure (SMILES) | IC50 (human GlyT1c; [1]) | Ki (human GlyT1c transporter; [2]) | IC50 (human GlyT1c) | Ki (human GlyT1c transporter) |
| --- | --- | --- | --- | --- |
| CCOC(=O)NC1CCc2ccc(OCCNS(=O)(=O)c3cnn(C)c3)cc2C1Cc1ccc(Cl)cc1Cl (stereo not shown) [Example 62, {1-(2,4-Dichloro-benzyl)-7-[2-(1-methyl-1H-pyrazole-4-sulfonylamino)-ethoxy]-1,2,3,4-tetrahydro-naphthalen-2-yl}-carbamic acid ethyl ester] | ≤ 1000 µM | ≤ 10 µM | – | – |
| CCOC(=O)NC1CCc2ccc(OCCNS(=O)(=O)c3cccs3)cc2C1Cc1ccc(Cl)cc1Cl (stereo not shown) [Example 63, {1-(2,4-Dichloro-benzyl)-7-[2-(thiophene-2-sulfonylamino)-ethoxy]-1,2,3,4-tetrahydronaphthalen-2-yl}-carbamic acid ethyl ester] | ≥ 100 µM | ≤ 10 µM | – | – |
| CCOC(=O)NC1CCc2ccc(OCCNS(=O)(=O)c3ccc(C)s3)cc2C1Cc1ccc(Cl)cc1Cl (stereo not shown) [Example 64, {1-(2,4-Dichloro-benzyl)-7-[2-(5-methyl-thiophene-2-sulfonylamino)-ethoxy]-1,2,3,4-tetrahydro-naphthalen-2-yl}-carbamic acid ethyl ester] | ≤ 1000 µM | ≤ 10 µM | – | – |
| CCOC(=O)NC1CCc2ccc(OCCNS(=O)(=O)CC)cc2C1Cc1cccc(Cl)c1 (stereo not shown) [Example 65, [1-(3-Chloro-benzyl)-7-(2-ethanesulfonylamino-ethoxy)-1,2,3,4-tetrahydro-naphthalen-2-yl]-carbamic acid ethyl ester] | ≤ 100 µM | ≥ 10 µM | – | – |
| CCn1cc(S(=O)(=O)NCCOc2ccc3c(c2)C(Cc2cccc(Cl)c2)C(N)CC3)cn1 (stereo not shown) [Example 66, 1-Ethyl-1H-pyrazole-4-sulfonic acid {2-[7-amino-8-(3-chloro-benzyl)-5,6,7,8-tetrahydronaphthalen-2-yloxy]-ethyl}-amide hydrochloride] | – | – | ≤ 1 µM | ≤ 0.1 µM |
| Cc1csc(S(=O)(=O)NCCOc2ccc3c(c2)C(Cc2cccc(Cl)c2)C(N)CC3)c1 (stereo not shown) [Example 67, 4-Methyl-thiophene-2-sulfonic acid {2-[7-amino-8-(3-chloro-benzyl)-5,6,7,8-tetrahydronaphthalen-2-yloxy]-ethyl}-amide hydrochloride] | ≤ 1 µM | ≤ 0.1 µM | – | – |
| Cc1ccc(S(=O)(=O)NCCOc2ccc3c(c2)C(Cc2cccc(Cl)c2)C(N)CC3)s1 (stereo not shown) [Example 68, 5-Methyl-thiophene-2-sulfonic acid {2-[7-amino-8-(3-chloro-benzyl)-5,6,7,8-tetrahydronaphthalen-2-yloxy]-ethyl}-amide hydrochloride] | ≤ 10 µM | ≤ 1 µM | – | – |
| Cc1cc(S(=O)(=O)NCCOc2ccc3c(c2)C(Cc2cccc(Cl)c2)C(N)CC3)c(C)s1 (stereo not shown) [Example 69, 2,5-Dimethyl-thiophene-3-sulfonic acid {2-[7-amino-8-(3-chloro-benzyl)-5,6,7,8-tetrahydronaphthalen-2-yloxy]-ethyl}-amide hydrochloride] | ≤ 10 µM | ≤ 1 µM | – | – |
| CCS(=O)(=O)NCCOc1ccc2c(c1)C(Cc1cccc(Cl)c1)C(N)CC2 (stereo not shown) [Example 70, Ethanesulfonic acid {2-[7-amino-8-(3-chloro-benzyl)-5,6,7,8-tetrahydro-naphthalen-2-yloxy]-ethyl}-amide hydrochloride] | – | – | ≤ 1 µM | ≤ 0.1 µM |
| Cn1cc(S(=O)(=O)NCCOc2ccc3c(c2)C(Cc2ccc(Cl)cc2Cl)C(N)CC3)cn1 (stereo not shown) [Example 71, 1-Methyl-1H-pyrazole-4-sulfonic acid {2-[7-amino-8-(2,4-dichloro-benzyl)-5,6,7,8-tetrahydro-naphthalen-2-yloxy]-ethyl}-amide hydrochloride] | ≤ 0.1 µM | ≤ 0.01 µM | – | – |
| NC1CCc2ccc(OCCNS(=O)(=O)c3cccs3)cc2C1Cc1ccc(Cl)cc1Cl (stereo not shown) [Example 72, Thiophene-2-sulfonic acid {2-[7-amino-8-(2,4-dichloro-benzyl)-5,6,7,8-tetrahydronaphthalen-2-yloxy]-ethyl}-amide hydrochloride] | ≤ 10 µM | ≤ 10 µM | – | – |
| Cc1ccc(S(=O)(=O)NCCOc2ccc3c(c2)C(Cc2ccc(Cl)cc2Cl)C(N)CC3)s1 (stereo not shown) [Example 73, 5-Methyl-thiophene-2-sulfonic acid {2-[7-amino-8-(2,4-dichloro-benzyl)-5,6,7,8-tetrahydronaphthalen-2-yloxy]-ethyl}-amide hydrochloride] | ≤ 10 µM | ≤ 1 µM | – | – |
| CCCS(=O)(=O)NCCOc1ccc2c(c1)C(Cc1ccc(Cl)cc1Cl)C(NC(=O)OCC)CC2 (stereo not shown) [Example 74, {1-(2,4-Dichloro-benzyl)-7-[2-(propane-1-sulfonylamino)-ethoxy]-1,2,3,4-tetrahydronaphthalen-2-yl}-carbamic acid ethyl ester] | ≤ 100 µM | ≥ 10 µM | – | – |
| CCCS(=O)(=O)NCCOc1ccc2c(c1)C(Cc1ccc(Cl)cc1Cl)C(N)CC2 (stereo not shown) [Example 75, Propane-1-sulfonic acid {2-[7-amino-8-(2,4-dichloro-benzyl)-5,6,7,8-tetrahydronaphthalen-2-yloxy]-ethyl}-amide hydrochloride] | ≤ 10 µM | ≤ 1 µM | – | – |
| CCCS(=O)(=O)N(C)CCOc1ccc2c(c1)C(Cc1ccc(Cl)cc1)C(NC(=O)OCC)CC2 (stereo not shown) [Example 76, (1-(4-Chloro-benzyl)-7-{2-[methyl-(propane-1-sulfonyl)-amino]-ethoxy}-1,2,3,4-tetrahydronaphthalen-2-yl)-carbamic acid ethyl ester] | ≤ 1000 µM | ≤ 100 µM | – | – |
| CCCS(=O)(=O)N(C)CCOc1ccc2c(c1)C(Cc1ccc(Cl)cc1)C(N)CC2 (stereo not shown) [Example 77, Propane-1-sulfonic acid {2-[7-amino-8-(4-chloro-benzyl)-5,6,7,8-tetrahydro-naphthalen-2-yloxy]-ethyl}-methyl-amide hydrochloride] | ≤ 1 µM | ≤ 0.1 µM | – | – |
| CCCS(=O)(=O)N(C)CCOc1ccc2c(c1)C(Cc1cccc(Cl)c1)C(NC(=O)OCC)CC2 (stereo not shown) [Example 78, (1-(3-Chloro-benzyl)-7-{2-[methyl-(propane-1-sulfonyl)-amino]-ethoxy}-1,2,3,4-tetrahydronaphthalen-2-yl)-carbamic acid ethyl ester] | ≤ 10 µM | ≤ 10 µM | – | – |
| CCCS(=O)(=O)N(C)CCOc1ccc2c(c1)C(Cc1cccc(Cl)c1)C(N)CC2 (stereo not shown) [Example 79, Propane-1-sulfonic acid {2-[7-amino-8-(3-chloro-benzyl)-5,6,7,8-tetrahydronaphthalen-2-yloxy]-ethyl}-methyl-amide hydrochloride] | ≤ 1 µM | ≤ 0.1 µM | – | – |
| CCOC(=O)NC1CCc2ccc(OCCNS(=O)(=O)c3cn(C)cn3)cc2C1Cc1cccc(Cl)c1 (stereo not shown) [Example 80, {1-(3-Chloro-benzyl)-7-[2-(1-methyl-1H-imidazole-4-sulfonylamino)-ethoxy]-1,2,3,4-tetrahydro-naphthalen-2-yl}-carbamic acid ethyl ester] | ≤ 1 µM | ≤ 1 µM | – | – |
| CCOC(=O)NC1CCc2ccc(OCCNS(=O)(=O)c3cnn(C(F)F)c3)cc2C1Cc1cccc(Cl)c1 (stereo not shown) [Example 81, {1-(3-Chloro-benzyl)-7-[2-(1-difluoromethyl-1H-pyrazole-4-sulfonylamino)-ethoxy]-1,2,3,4-tetrahydro-naphthalen-2-yl}-carbamic acid ethyl ester] | ≥ 1000 µM | ≤ 10 µM | – | – |
| CCCS(=O)(=O)N1CCC[C@@H]1COc1ccc2c(c1)C(Cc1cccc(Cl)c1)C(N)CC2 (stereo partly drawn) [Example 82, 1-(3-Chloro-benzyl)-7-[(R)-1-(propane-1-sulfonyl)-pyrrolidin-2-ylmethoxy]-1,2,3,4-tetrahydro-naphthalen-2-ylamine hydrochloride] | ≤ 1 µM | ≤ 0.1 µM | – | – |
| CCCS(=O)(=O)N1CC(Oc2ccc3c(c2)C(Cc2cccc(Cl)c2)C(N)CC3)C1 (stereo not shown) [Example 83, 1-(3-Chloro-benzyl)-7-[1-(propane-1-sulfonyl)-azetidin-3-yloxy]-1,2,3,4-tetrahydronaphthalen-2-ylamine hydrochloride] | ≤ 10 µM | ≤ 1 µM | – | – |
| CCS(=O)(=O)CCCOc1ccc2c(c1)C(Cc1cccc(Cl)c1)C(N)CC2 (stereo not shown) [Example 84, 1-(3-Chloro-benzyl)-7-(3-ethanesulfonyl-propoxy)-1,2,3,4-tetrahydro-naphthalen-2-ylamine hydrochloride] | – | – | ≤ 10 µM | ≤ 10 µM |
